Data taken from ChEMBL document CHEMBL5236628 (J Med Chem, 2022).
pIC50: −log10 of the molar value. Converted amounts (≈) assume the structure as drawn. The source made the active and inactive calls. The rule behind the calls is not given here.

What was measured:
[1] = Cmax in mouse at 10 mg/kg, po; type: ADME, organism-based; parameters: dose 10 mg/kg, route po; settings: in vivo
[2] = Apparent half life in mouse at 3 mg/kg, iv; type: ADME, organism-based; settings: in vivo, read-out: t1/2(app) (converted)
[3] = Volume of distribution in mouse at 3 mg/kg, iv; type: ADME, organism-based; settings: in vivo
[4] = system: Plasmodium falciparum; assay: microbe, parasite or virus in culture; settings: NF54, 72 h
[5] = Tmax in mouse at 10 mg/kg, po; type: ADME, organism-based; settings: in vivo
[6] = Selectivity index, ratio of IC50 for Plasmodium falciparum NF54 to IC50 for CHO cells; settings: hamster
[7] = system: Plasmodium falciparum; assay: Antiplasmodial activity against multidrug resistant Plasmodium falciparum K1 incubated for 72 hrs by microplate reader assay; type: functional, organism-based; settings: K1, 72 h
[8] = Apparent half life in mouse at 50 mg/kg, po; type: ADME, organism-based; settings: in vivo, read-out: t1/2(app) (converted)
[9] = Oral bioavailability in mouse at 50 mg/kg; type: ADME, organism-based; settings: in vivo
[10] = AUC(0 to infinity) in mouse at 50 mg/kg, po; type: ADME, organism-based; parameters: dose 50 mg/kg, route po; settings: in vivo
[11] = physchem; settings: buffer, pH 7.4
[12] = Apparent half life in mouse at 10 mg/kg, po; type: ADME, organism-based; settings: in vivo, read-out: t1/2(app) (converted)
[13] = Tmax in mouse at 50 mg/kg, po; type: ADME, organism-based; settings: in vivo
[14] = system: Plasmodium berghei; assay: Antiplasmodial activity against Plasmodium berghei ANKA infected in mouse assessed as reduction in parasitemia at 50 mg/kg, po administered for 4 days; type: functional; parameters: scale not given: the % may be the effect or the level left; settings: time 4 day
[15] = AUC(0 to infinity) in mouse at 10 mg/kg, po; type: ADME, organism-based; parameters: dose 10 mg/kg, route po; settings: in vivo
[16] = Cmax in mouse at 50 mg/kg, po; type: ADME, organism-based; parameters: dose 50 mg/kg, route po; settings: in vivo
[17] = Cytotoxicity against CHO cells measured after 48 hrs by MTT assay; settings: Chinese hamster
[18] = AUC(0 to infinity) in mouse at 3 mg/kg, iv; type: ADME, organism-based; parameters: dose 3 mg/kg, route iv; settings: in vivo
[19] = Oral bioavailability in mouse at 10 mg/kg; type: ADME, organism-based; settings: in vivo
[20] = Intrinsic clearance in mouse at 3 mg/kg, iv; type: ADME, organism-based; settings: in vivo
[21] = biological target: Voltage-gated inwardly rectifying potassium channel KCNH2 (Homo sapiens, UniProt Q12809); assay: Inhibition of human ERG expressed in CHO-K1 cells by Q-patch clamp assay
Chain of Voltage-gated inwardly rectifying potassium channel KCNH2 (Q12809 whole entry): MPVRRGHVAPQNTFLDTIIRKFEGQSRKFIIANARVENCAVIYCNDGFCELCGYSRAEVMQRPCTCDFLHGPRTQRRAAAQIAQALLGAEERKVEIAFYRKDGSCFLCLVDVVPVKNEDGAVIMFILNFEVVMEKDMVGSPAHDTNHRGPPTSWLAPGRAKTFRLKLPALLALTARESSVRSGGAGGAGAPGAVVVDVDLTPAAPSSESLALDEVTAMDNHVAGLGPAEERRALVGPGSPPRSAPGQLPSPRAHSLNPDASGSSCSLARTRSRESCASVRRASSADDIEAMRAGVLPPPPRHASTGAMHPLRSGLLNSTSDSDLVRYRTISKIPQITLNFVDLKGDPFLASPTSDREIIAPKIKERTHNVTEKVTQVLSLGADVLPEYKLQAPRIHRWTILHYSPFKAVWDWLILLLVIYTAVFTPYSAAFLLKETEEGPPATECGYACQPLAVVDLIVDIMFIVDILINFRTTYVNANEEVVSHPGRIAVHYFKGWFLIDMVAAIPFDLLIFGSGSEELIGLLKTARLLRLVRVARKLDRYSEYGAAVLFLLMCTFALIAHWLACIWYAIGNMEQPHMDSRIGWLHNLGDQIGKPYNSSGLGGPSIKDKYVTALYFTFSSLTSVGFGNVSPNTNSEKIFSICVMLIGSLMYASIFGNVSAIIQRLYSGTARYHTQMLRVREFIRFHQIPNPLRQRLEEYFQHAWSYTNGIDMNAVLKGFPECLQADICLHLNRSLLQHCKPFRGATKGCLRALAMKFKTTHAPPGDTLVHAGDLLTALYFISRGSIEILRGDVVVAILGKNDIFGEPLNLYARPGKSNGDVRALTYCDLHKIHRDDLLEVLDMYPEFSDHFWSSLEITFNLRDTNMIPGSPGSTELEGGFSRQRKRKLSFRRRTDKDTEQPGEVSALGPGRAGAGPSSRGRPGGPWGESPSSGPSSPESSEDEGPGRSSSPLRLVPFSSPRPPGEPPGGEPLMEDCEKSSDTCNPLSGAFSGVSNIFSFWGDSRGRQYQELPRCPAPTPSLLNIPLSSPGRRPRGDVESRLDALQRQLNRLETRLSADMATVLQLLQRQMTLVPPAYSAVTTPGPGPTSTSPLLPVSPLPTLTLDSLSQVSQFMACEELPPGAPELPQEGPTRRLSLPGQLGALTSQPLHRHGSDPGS

[22] = system: Hemozoin; assay: Inhibition of Beta-hematin in Plasmodium falciparum NF54 assessed as hemozoin formation after 36 hrs by flow cytometry analysis
[23] = system: HepG2; assay: Cytotoxicity against human HepG2 cells after 48 hrs by CellTiter Glo assay; type: toxicity, cell-based; settings: hepg2, 48 h
[24] = system: Plasmodium falciparum; assay: Antiplasmodial activity against early stage (I to III) Plasmodium falciparum incubated for 48 hrs by bioluminescence assay; type: functional, organism-based
[25] = system: Plasmodium berghei; assay: Antiplasmodial activity against liver stage Plasmodium berghei ANKA sporozoites expressing GFP infected in HepG2 cells pre-infected with cells for 1 hr prior to compound addition and measured after 48 hrs by flow cytometry analysis
[26] = system: Plasmodium berghei; assay: Antiplasmodial activity against Plasmodium berghei ANKA infected in mouse assessed as mean survival days at 50 mg/kg, po administered for 4 days and measured upto 30 days; type: functional; settings: time 4 day
[27] = Drug accumulation in hemozoin crystal of human erythrocytes infected with chloroquine sensitive Plasmodium falciparum NF54 by live cell imaging analysis; type: ADME, cell-based; settings: erythrocyte
[28] = Drug accumulation in nucleus of human erythrocytes infected with chloroquine sensitive Plasmodium falciparum NF54 by live cell imaging analysis; type: ADME, subcellular; settings: erythrocyte
[29] = system: Plasmodium falciparum; assay: Antiplasmodial activity against chloroquine sensitive Plasmodium falciparum NF54 infected in human erythrocytes incubated for 48 hrs followed by addition of [3H]-hypoxanthine and measured after 24 hrs by beta-plate liquid scintillation counting method; type: functional, organism-based
[30] = Drug accumulation in lysosomes of human erythrocytes infected with chloroquine sensitive Plasmodium falciparum NF54 by live cell imaging analysis; type: ADME, cell-based; settings: erythrocyte
[31] = system: Plasmodium falciparum; assay: Antiplasmodial activity against multidrug resistant Plasmodium falciparum K1 infected in human erythrocytes incubated for 48 hrs followed by addition of [3H]-hypoxanthine and measured after 24 hrs by beta-plate liquid scintillation counting method; type: functional, organism-based
[32] = Drug accumulation in endoplasmic reticulum of human erythrocytes infected with chloroquine sensitive Plasmodium falciparum NF54 by live cell imaging analysis; type: ADME, subcellular; settings: erythrocyte
[33] = Drug accumulation in mitochondria of human erythrocytes infected with chloroquine sensitive Plasmodium falciparum NF54 by live cell imaging analysis; type: ADME; settings: erythrocyte
[34] = Drug accumulation in neutral lipid droplets of human erythrocytes infected with chloroquine sensitive Plasmodium falciparum NF54 by live cell imaging analysis; type: ADME, cell-based; settings: erythrocyte
[35] = system: Plasmodium falciparum; assay: Antiplasmodial activity against Plasmodium falciparum assessed as reduction in parasite viability incubated for 72 hrs by LDH assay; type: functional, organism-based

Cc1noc(-c2ccc(CCN3CCC(Nc4nc5ccccc5[nH]4)CC3)cc2)n1
Cmax [1]: 1000 nM | half-life [2]: 11.6 h | Vd [3]: 13.6 L/kg | pIC50 [4]: 7.26 | Tmax [5]: 1.5 h | selectivity ratio [6]: 64.7 | pIC50 [7]: 6.75 | half-life [8]: 9.2 h | bioavailability [9]: 61% | AUC [10]: 5548 µM/min | solubility kinetic at 2 h [11]: 80 µM (≈ 32.2 µg/mL) | half-life [12]: 10.3 h | Tmax [13]: 3 h | Activity [14]: 40% | AUC [15]: 535 µM/min | Cmax [16]: 5900 nM | IC50 at 48 h ([17]; CHO cells): 3560 nM | AUC [18]: 550 µM/min | bioavailability [19]: 29.3% | CL [20]: 16.6 mL/min/kg

N#Cc1ccc(Cn2c(NC3CCN(CCc4ccc(-c5nc(C(F)(F)F)no5)cc4)CC3)nc3ccccc32)cc1
pIC50 [21]: 6.33 | pIC50 [4]: 7.66 | selectivity ratio [6]: 34 | pIC50 [7]: 7.57 | solubility kinetic at 2 h [11]: 10 µM (≈ 5.72 µg/mL) | inhibition [22]: Active | IC50 at 48 h ([17]; CHO cells): 750 nM

Cn1c(NC2CCN(CCc3ccc(-c4nc(C(C)(C)C)no4)cc3)CC2)nc2ccccc21
pIC50 [4]: 7.19 | pIC50 [7]: 6.52 | Activity [23]: Non-Toxic | IC50 at 48 h ([17]; cho): 4690 nM | pIC50 [24]: 5.93

COc1ccc(CCN2CCC(Nc3nc4ccccc4n3Cc3ccc(F)cc3)CC2)cc1 [ASTEMIZOLE]
solubility kinetic at 2 h [11]: 40 µM (≈ 18.3 µg/mL) | Activity [23]: Non-Toxic

Cn1c(NC2CCN(CCc3ccc(-c4nc(C(F)(F)F)no4)cc3)CC2)nc2ccccc21
pIC50 [4]: 7.18 | pIC50 [7]: 7.32 | pIC50 [25]: 6.68 | Activity [23]: Non-Toxic | MSD [26]: 9 days | Activity [14]: 90% | IC50 at 48 h ([17]; cho): 3180 nM | pIC50 [24]: 5.78

O=[N+]([O-])c1ccc(NCCn2c(NC3CCN(CCc4ccc(-c5nc(C(F)(F)F)no5)cc4)CC3)nc3ccccc32)c2nonc12
Drug uptake [27]: Active | Drug uptake [28]: Not Active | pIC50 [29]: 6.85 | Drug uptake [30]: Active | solubility kinetic at 2 h [11]: 120 µM (≈ 79.5 µg/mL) | pIC50 [31]: 6.43 | Drug uptake [32]: Active | Drug uptake [33]: Active | Drug uptake [34]: Active

Cc1noc(-c2ccc(CCN3CCC(Nc4nc5ccccc5n4Cc4ccc(C(F)(F)F)nc4)CC3)cc2)n1
pIC50 [21]: 6.60 | pIC50 [4]: 7.36 | selectivity ratio [6]: 128 | pIC50 [7]: 6.76 | solubility kinetic at 2 h [11]: 40 µM (≈ 22.5 µg/mL) | inhibition [22]: Active | IC50 at 48 h ([17]; CHO cells): 5630 nM

NCCn1c(NC2CCN(CCc3ccc(-c4nc(C(F)(F)F)no4)cc3)CC2)nc2ccccc21
pIC50 [29]: 7.05 | solubility kinetic at 2 h [11]: > 200 µM | pIC50 [31]: 7.44

FC(F)(F)c1noc(-c2ccc(CCN3CCC(Nc4nc5ccccc5[nH]4)CC3)cc2)n1
Cmax [1]: 300 nM | half-life [2]: 4.2 h | Vd [3]: 26.6 L/kg | Tmax [5]: 0.7 h | half-life [8]: 10.2 h | bioavailability [9]: 93.3% | AUC [10]: 1429 µM/min | half-life [12]: 1.1 h | inhibition [22]: inactive | Activity [23]: Non-Toxic | MSD [26]: 14 days | Tmax [13]: 1.7 h | AUC [15]: 48 µM/min | Cmax [16]: 1500 nM | IC50 at 48 h ([17]; cho): 1960 nM | AUC [18]: 93.4 µM/min | bioavailability [19]: 15.6% | CL [20]: 71.7 mL/min/kg

CN(C)c1ccc2nc3ccc(N(C)C)cc3[s+]c2c1 [METHYLENE BLUE ANHYDROUS]
pIC50 [24]: 6.70

COc1ccc(CCN2CCC(Nc3nc4cc(Cl)c(Cl)cc4[nH]3)CC2)cc1
pIC50 [35]: 7.08
